For orientation: IC50 means the concentration needed to halve the response being measured. By EC50 is commonly meant the concentration needed to bring the measured effect to its halfway point.

The results in this text go back to US11352322B2, “Cyclopropyl-amide compounds as dual LSD1/HDAC inhibitors” (Jubilant Epicore LLC, priority 2016, dated 2022).

Data set [1] concerns the target HDAC6 human recombinant enzyme (Homo sapiens (Human), UniProt Q9UBN7). The data set can be described thus: Histone Deacetylase Assay (BPS Biosciences), HDAC6. The class given is biochemical. The source says: Histone Deacetylase Assay (BPS Biosciences)
Histone deacetylase assay was done as per manufacturer's instructions.

A short description of data set [2]: Metabolic stability in liver microsomes, HLM. As to conditions: 1 μM, NADPH. For orientation: Microsomes from liver hold many membrane-bound enzymes, among them those of drug oxidation.
Method: (§1) The microsomal suspension was prepared by adding liver microsomes to 100 mM potassium phosphate buffer (pH7.4) to give a final protein concentration of 0.5 mg/mL. The stock solution of NCE (10 mM in DMSO) was added to the microsomes to provide a final concentration of 1 μM. […] Samples were vortexed and centrifuged at 5,000 rpm for 10 min to remove proteins. Supernatant were analyzed on LC-MS/MS.
The nature of data set [3]: Metabolic stability in liver microsomes, MLM. The settings on record: 1 μM, NADPH.
Method: as §1
The target in data set [4] is LSD1 (Homo sapiens (Human), UniProt O60341). The data set can be described thus: TR-FRET Assay for LSD1.
Method: TR-FRET Assay for LSD1 (Perkin Elmer)
Tranylcypromine (TCP), LSD1 inhibitor was procured from Selleckchem. […] Stop Solution containing 300 μM tranylcypromine in 1× LANCE Detection Buffer was added to the wells and incubated for 5 min at RT. Then, Detection mix containing 2 nM Eu-Ab and 50 nM ULight-Streptavidin in 1× LANCE Detection Buffer was prepared and added to the reaction mix. This mixture was incubated for 1 hour at room temperature.
Data set [5] relates to MM1S. Briefly: Anticancer activity: Alamar Blue assay, MM1S. The class given is cell-based. The settings on record: Homo sapiens, MM1.S, read-out: MM1S EC50. A general note: Alamar Blue is a resazurin reagent that responds to reducing activity.

SMILES strings stand for the structures. Structures can show the parent of a compound that is named as a salt. Where two headings read alike, the source gives them in different places. Where only a bound is given, the exact number is not on record here.

Chain of HDAC6 human recombinant enzyme (Q9UBN7 whole entry): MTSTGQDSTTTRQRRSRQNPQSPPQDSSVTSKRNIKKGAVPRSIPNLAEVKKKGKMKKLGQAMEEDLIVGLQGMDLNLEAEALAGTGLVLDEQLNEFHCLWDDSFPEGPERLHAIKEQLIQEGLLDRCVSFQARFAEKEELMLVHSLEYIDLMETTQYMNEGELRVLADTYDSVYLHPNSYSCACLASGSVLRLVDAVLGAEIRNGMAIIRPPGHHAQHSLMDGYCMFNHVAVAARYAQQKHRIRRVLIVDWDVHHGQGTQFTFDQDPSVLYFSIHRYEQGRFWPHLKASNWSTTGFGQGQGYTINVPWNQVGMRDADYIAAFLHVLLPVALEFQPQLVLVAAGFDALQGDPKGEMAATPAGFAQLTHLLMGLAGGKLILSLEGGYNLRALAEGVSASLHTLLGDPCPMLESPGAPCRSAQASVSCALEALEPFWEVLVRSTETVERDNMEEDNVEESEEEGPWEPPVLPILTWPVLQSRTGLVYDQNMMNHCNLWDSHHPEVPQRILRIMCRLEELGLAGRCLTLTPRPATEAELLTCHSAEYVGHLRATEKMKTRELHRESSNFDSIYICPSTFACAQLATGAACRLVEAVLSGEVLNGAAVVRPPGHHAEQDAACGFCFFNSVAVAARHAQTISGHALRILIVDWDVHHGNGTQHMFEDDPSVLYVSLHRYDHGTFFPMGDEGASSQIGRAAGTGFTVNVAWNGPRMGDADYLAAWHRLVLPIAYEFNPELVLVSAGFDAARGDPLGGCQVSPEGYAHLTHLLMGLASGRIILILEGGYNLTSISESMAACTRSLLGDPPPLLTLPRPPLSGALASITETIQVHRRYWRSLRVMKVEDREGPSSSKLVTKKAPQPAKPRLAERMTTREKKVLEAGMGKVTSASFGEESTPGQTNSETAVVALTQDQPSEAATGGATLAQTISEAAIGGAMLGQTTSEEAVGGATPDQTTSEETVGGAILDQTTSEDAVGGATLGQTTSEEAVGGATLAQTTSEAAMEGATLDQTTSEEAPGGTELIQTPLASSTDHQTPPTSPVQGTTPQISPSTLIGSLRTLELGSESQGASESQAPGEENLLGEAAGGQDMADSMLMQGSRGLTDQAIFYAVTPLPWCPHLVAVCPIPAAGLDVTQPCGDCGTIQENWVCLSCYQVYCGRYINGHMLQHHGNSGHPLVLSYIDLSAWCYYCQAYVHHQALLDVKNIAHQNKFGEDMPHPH

For the molecule `O=C(NO)c1ccc(CCC(=O)N2CCC(CNC3CC3c3ccccc3)CC2)cc1` (stereo not shown) [Example 82, N-hydroxy-4-(3-oxo-3-(4-(((2-phenylcyclopropyl)amino)methyl)piperidin-1-yl)propyl)benzamide TFA Salt], the IC50 was 0.035 µM in data set [1] and 0.094 µM in data set [4] (read-out: LSD1 IC50). Besides, in data set [2], the “Metabolic stability HLM % remaining in 30 min” value turned out to be 77%. Further, the “Metabolic stability MLM % remaining in 30 min” value in data set [3] is recorded as 72%. Further, the EC50 in data set [5] was 0.619 µM.
Consider `O=C(NO)c1ccc(CN2CCn3cc(CNC4CC4c4ccc(F)cc4)nc3C2)cc1` (stereo not shown) [Example 80, 4-((2-(((2-(4-fluorophenyl)cyclopropyl)amino)methyl)-5,6-dihydroimidazo[1,2-a]pyrazin-7(8H)-yl)methyl)-N-hydroxybenzamide TFA Salt], for which the figures for the IC50 in data set [1] and in data set [4] (read-out: LSD1 IC50) were 0.068 µM and 1.5 µM, respectively. The “Metabolic stability HLM % remaining in 30 min” value in data set [2] was 82%. The “Metabolic stability MLM % remaining in 30 min” value in data set [3] is 87%. Besides, the EC50 in data set [5] amounted to 0.331 µM.
Take `O=C(NO)c1coc(CCCN2CCC(CNC3CC3c3ccccc3)CC2)n1.O=C(O)C(F)(F)F` (stereo not shown) [Example 113, N-hydroxy-2-(3-(4-(((2-phenylcyclopropyl)amino)methyl)piperidin-1-yl)propyl)oxazole-4-carboxamide TFA Salt]: the results for the IC50 in data set [1] and in data set [4] were over 10 µM and 0.026 µM, respectively. Also, in data set [2], the “Metabolic stability HLM % remaining in 30 min” value is on record as 78%. In addition, the “Metabolic stability MLM % remaining in 30 min” value in data set [3] is 76%. The EC50 in data set [5] (MM1S cells) is over 10 µM.
`Cn1cc(-c2ccc(C3CC3NCC3CCN(CCCc4ccc(C(=O)NO)cc4)CC3)cc2)cn1` (stereo not shown) [Example 62, N-hydroxy-4-(3-(4-(((2-(4-(1-methyl-1H-pyrazol-4-yl)phenyl)cyclopropyl)amino)methyl)piperidin-1-yl)propyl) benzamide TFA Salt]: the results for the IC50 in data set [1] and in data set [4] (read-out: LSD1 IC50) were 0.066 µM and 0.043 µM, respectively. The “Metabolic stability HLM % remaining in 30 min” value in data set [2] is 77%. Further, the “Metabolic stability MLM % remaining in 30 min” value in data set [3] was 66%. Also, the EC50 in data set [5] (MM1S cells) came out at 0.007 µM.
Take `Cc1noc(C)c1-c1ccc(C2CC2NCC2CCN(CCCc3ccc(C(=O)NO)cc3)CC2)cc1.O=C(O)C(F)(F)F` (stereo not shown) [Example 64, 4-(3-(4-(((2-(4-(3,5-dimethylisoxazol-4-yl)phenyl)cyclopropyl)amino)methyl)piperidin-1-yl)propyl)-N-hydroxybenzamide TFA Salt]: the figures for the IC50 in data set [1] and in data set [4] were 0.058 µM and 0.059 µM, respectively. For the same molecule, the “Metabolic stability HLM % remaining in 30 min” value in data set [2] worked out at 82%. Also, the “Metabolic stability MLM % remaining in 30 min” value in data set [3] was found to be 77%. Besides, the EC50 in data set [5] (MM1S cells) was 0.011 µM.
With `O=C(NO)c1ccc(CCCN2CCC(NC3CC3c3ccccc3)CC2)cc1` (stereo not shown) [Example 44, N-hydroxy-4-(3-(4-((2-phenylcyclopropyl)amino)piperidin-1-yl)propyl)benzamide TFA Salt], the IC50 in data set [1] worked out at 0.065 µM; in data set [4] (read-out: LSD1 IC50), 0.013 µM. For the same molecule, the “Metabolic stability HLM % remaining in 30 min” value in data set [2] was determined as 71%. The “Metabolic stability MLM % remaining in 30 min” value in data set [3] was determined as 55%. Further, the EC50 in data set [5] stood at 0.045 µM.
With `O=C(NO)c1ccc(/C=C/C(=O)N2CC(CNC3CC3c3ccc(F)cc3)C2)cc1` (stereo not shown) [Example 118, (E)-4-(3-(3-(((2-(4-fluorophenyl)cyclopropyl)amino)methyl)azetidin-1-yl)-3-oxoprop-1-en-1-yl)-N-hydroxybenzamide TFA Salt], the IC50 amounted to 0.058 µM in data set [1] and 0.037 µM in data set [4] (read-out: LSD1 IC50). For the same molecule, the “Metabolic stability HLM % remaining in 30 min” value in data set [2] came out at 77%. In addition, in data set [3], the “Metabolic stability MLM % remaining in 30 min” value is 76%. In addition, in data set [5], the EC50 was found to be 0.021 µM.
Consider `Nc1ccccc1NC(=O)c1ccc(CCCN2CC3(CC(NC4CC4c4ccccc4)C3)C2)cc1` (stereo not shown) [Example 127, N-(2-aminophenyl)-4-(3-(6-((2-phenylcyclopropyl)amino)-2-azaspiro[3.3]heptan-2-yl)propyl)benzamide TFA Salt], for which the results for the IC50 in data set [1] and in data set [4] (read-out: LSD1 IC50) were over 10 µM and 0.764 µM, respectively. Further, the “Metabolic stability HLM % remaining in 30 min” value in data set [2] turned out to be 17%. In data set [3], the “Metabolic stability MLM % remaining in 30 min” value is recorded as 19%. Further, in data set [5] (MM1S cells), the EC50 stood at 0.126 µM.
As for `O=C(NO)c1ccc(CCCN2CC(CNC3CC3c3ccc(F)cc3)C2)cc1` (stereo not shown) [Example 48, 4-(3-(3-(((2-(4-fluorophenyl)cyclopropyl)amino)methyl)azetidin-1-yl)propyl)-N-hydroxy benzamide TFA Salt], the IC50 came out at 0.184 µM in data set [1] and 0.029 µM in data set [4] (read-out: LSD1 IC50). The “Metabolic stability HLM % remaining in 30 min” value in data set [2] was determined as 85%. Besides, the “Metabolic stability MLM % remaining in 30 min” value in data set [3] was under 5%. Also, the EC50 in data set [5] (MM1S cells) worked out at 0.025 µM.
As for `O=C(NO)c1ccc(/C=C/C(=O)N2CCC(CN[C@H]3C[C@@H]3c3ccc(F)cc3)CC2)cc1` [Example 115, 4-((E)-3-(4-((((1S,2R)-2-(4-fluorophenyl)cyclopropyl)amino)methyl)piperidin-1-yl)-3-oxoprop-1-en-1-yl)-N-hydroxybenzamide TFA Salt], the IC50 in data set [1] came out at 0.053 µM; in data set [4] (read-out: LSD1 IC50), 0.065 µM. In data set [2], the “Metabolic stability HLM % remaining in 30 min” value turned out to be 75%. In addition, the “Metabolic stability MLM % remaining in 30 min” value in data set [3] is given as 45%. In addition, in data set [5] (MM1S cells), the EC50 was 0.01 µM.
For `Nc1ccccc1NC(=O)c1ccc(CN2CCC(CNC3CC3c3ccc(-c4cncnc4)cc3)CC2)cc1` (stereo not shown) [Example 144, N-(2-aminophenyl)-4-((4-(((2-(4-(pyrimidin-5-yl)phenyl)cyclopropyl)amino)methyl)piperidin-1-yl)methyl)benzamide TFA Salt], the results for the IC50 in data set [1] and in data set [4] (read-out: LSD1 IC50) were over 10 µM and 0.041 µM, respectively. For the same molecule, the “Metabolic stability HLM % remaining in 30 min” value in data set [2] is given as 68%. In addition, the “Metabolic stability MLM % remaining in 30 min” value in data set [3] is listed as 52%. Moreover, in data set [5], the EC50 was determined as 0.152 µM.
`Cc1noc(C)c1-c1ccc(C2CC2NCC2CCN(Cc3ccc(C(=O)Nc4ccccc4N)cc3)CC2)cc1` (stereo not shown) [Example 143, N-(2-aminophenyl)-4-((4-(((2-(4-(3,5-dimethylisoxazol-4-yl)phenyl)cyclopropyl)amino)methyl)piperidin-1-yl)methyl)benzamide TFA Salt]: the IC50 in data set [1] was over 10 µM; in data set [4] (read-out: LSD1 IC50), 0.037 µM. In data set [2], the “Metabolic stability HLM % remaining in 30 min” value is recorded as 37%. Besides, in data set [3], the “Metabolic stability MLM % remaining in 30 min” value amounted to 50%. For the same molecule, the EC50 in data set [5] is 0.102 µM.
In the same order, the values of `Cn1cc(-c2ccc(C3CC3NCC3CN(C(=O)/C=C/c4ccc(C(=O)NO)cc4)C3)cc2)cn1` (stereo not shown) [Example 119, (E)-N-hydroxy-4-(3-(3-(((2-(4-(1-methyl-1H-pyrazol-4-yl)phenyl)cyclopropyl)amino)methyl)azetidin-1-yl)-3-oxoprop-1-en-1-yl)benzamide TFA Salt] are 0.049 µM, 0.019 µM, 72%, 49% and 0.772 µM.
As to `O=C(NO)c1ccc(OCCNC2CC2c2ccccc2)cc1` (stereo not shown) [Example 95, N-hydroxy-4-(2-((2-phenylcyclopropyl)amino)ethoxy)benzamide TFA Salt], the figures for the IC50 in data set [1] and in data set [4] (read-out: LSD1 IC50) were 0.35 µM and 0.033 µM, respectively. In addition, in data set [2], the “Metabolic stability HLM % remaining in 30 min” value came out at 75%. The “Metabolic stability MLM % remaining in 30 min” value in data set [3] is listed as 55%. In addition, the 50% effective concentration (EC50) in data set [5] came to 0.144 µM.
